From patent US20220401439A1, “INTRANASAL PHARMACEUTICAL COMPOSITIONS OF CGRP INHIBITORS” (Biohaven Pharmaceutical Holding Company Ltd., priority 2019, published 2022)

How the values were obtained:
[1] = tested on: patients receiving acute treatment of migraine; experiment: Phase 2/3 trial BHV3500-201 (Study 201), efficacy in acute treatment of migraine; assay type: in vivo, human; conditions: for Return to normal function at 30 minutes postdose, Stratified Percentage Difference (Zavegepant-Placebo) / Return to normal function at 60 minutes postdose, Stratified Percentage Difference (Zavegepant-Placebo) / Return to normal function at 2 hours postdose, Stratified Percentage Difference (Zavegepant-Placebo): subjects with functional disability at onset; for Pain relapse from 2 to 48 hours postdose, Stratified Percentage Difference (Zavegepant-Placebo): subjects with pain freedom at 2 hours postdose; for Nausea freedom at 2 hours postdose, Stratified Percentage Difference (Zavegepant-Placebo) / Phonophobia freedom at 2 hours postdose, Stratified Percentage Difference (Zavegepant-Placebo) / Photophobia freedom at 2 hours postdose, Stratified Percentage Difference (Zavegepant-Placebo): subjects with symptom present at onset; for Return to normal function at 30 minutes postdose, n/N (%) / Return to normal function at 60 minutes postdose, n/N (%) / Return to normal function at 2 hours postdose, n/N (%): mITT subjects with functional disability at on-study migraine attack onset; for Pain relapse from 2 to 48 hours postdose, n/N (%): mITT subjects with pain freedom at 2 hours postdose; for Nausea freedom at 2 hours postdose, n/N (%) / Phonophobia freedom at 2 hours postdose, n/N (%) / Photophobia freedom at 2 hours postdose, n/N (%): mITT subjects with symptom present at on-study migraine attack onset
clinical = conditions: human, in vivo; for AUC(0-inf): AUC[0-inf] (ng · h/mL) GM; for AUC(0-t): AUC[0-t] (ng · h/mL) GM; for Cmax: Cmax (ng/mL) GM
From the text: BHV3500-101 is a completed Phase 1, single-center, placebo-controlled, randomized, double-blind, sequential SAD study. This study consisted of up to 11 cohorts.
In total, 41 subjects were included in the PK analyses.

[2] = zavegepant 10 mg vs placebo, CMH weighting
[3] = zavegepant 10 mg, mITT subjects
[4] = zavegepant 20 mg vs placebo, mITT, CMH weighting
[5] = zavegepant 20 mg vs placebo, CMH weighting
[6] = zavegepant 20 mg, mITT subjects

For `Cc1cc(C[C@@H](NC(=O)N2CCC(c3cc4ccccc4[nH]c3=O)CC2)C(=O)N2CCN(C3CCN(C)CC3)CC2)cc2cn[nH]c12` [Zavegepant, (R)—N-(3-(7-methyl-1H-indazol-5-yl)-1-(4-(1-methylpiperidin-4-yl)piperazin-1-yl)-1-oxopropan-2-yl)-4-(2-oxo-1,2-dihydroquinolin-3-yl)piperidine-1-carboxamide], which “Return to normal function at 30 minutes postdose, Stratified Percentage Difference (Zavegepant-Placebo)” value [1, 2] is on record?
The value was 2.1%.

And the “Return to normal function at 60 minutes postdose, Stratified Percentage Difference (Zavegepant-Placebo)” value [1, 2]?
Its value is 1.8%.

And the “Return to normal function at 2 hours postdose, Stratified Percentage Difference (Zavegepant-Placebo)” value [1, 2]?
Its value is 7.1%.

And the “Pain relapse from 2 to 48 hours postdose, Stratified Percentage Difference (Zavegepant-Placebo)” value [1, 2]?
The value was −17.0%.

And the “Nausea freedom at 2 hours postdose, Stratified Percentage Difference (Zavegepant-Placebo)” value [1, 2]?
The value was 2.9%.

What about the “Phonophobia freedom at 2 hours postdose, Stratified Percentage Difference (Zavegepant-Placebo)” value [1, 2] of the same compound?
The value was 10.8%.

What about the “Photophobia freedom at 2 hours postdose, Stratified Percentage Difference (Zavegepant-Placebo)” value [1, 2] of the same compound?
Its value is 5.1%.

What about the “Pain relief at 30 minutes postdose, n/N (%)” value [1, 3] of the same compound?
Its value is “(29.9) %”.

And the “Pain relief at 60 minutes postdose, n/N (%)” value [1, 3]?
Its value is “(46.0) %”.

And the “Rescue medication use within 24 hours postdose, n/N (%)” value [1, 3]?
The value was “(26.0) %”.

And the “Sustained pain freedom from 2 to 24 hours postdose, n/N (%)” value [1, 3]?
The value was “(15.1) %”.

What about the “Sustained pain freedom from 2 to 48 hours postdose, n/N (%)” value [1, 3] of the same compound?
Its value is “(13.8) %”.

What about the “Sustained pain relief from 2 to 24 hours postdose, n/N (%)” value [1, 3] of the same compound?
Its value is “(42.5) %”.

What about the “Sustained pain relief from 2 to 48 hours postdose, n/N (%)” value [1, 3] of the same compound?
The value was “(39.6) %”.

And the “Return to normal function at 30 minutes postdose, n/N (%)” value ([1]; zavegepant 10 mg)?
The value was “(7.6) %”.

What about the “Return to normal function at 60 minutes postdose, n/N (%)” value ([1]; zavegepant 10 mg) of the same compound?
The value was “(18.9) %”.

And the “Return to normal function at 2 hours postdose, n/N (%)” value ([1]; zavegepant 10 mg)?
The value was “(34.5) %”.

What about the “Pain relapse from 2 to 48 hours postdose, n/N (%)” value ([1]; zavegepant 10 mg) of the same compound?
The value was “(33.0) %”.

What about the “Nausea freedom at 2 hours postdose, n/N (%)” value ([1]; zavegepant 10 mg) of the same compound?
The value was “(53.9) %”.

What about the “Phonophobia freedom at 2 hours postdose, n/N (%)” value ([1]; zavegepant 10 mg) of the same compound?
Its value is “(44.8) %”.

What about the “Photophobia freedom at 2 hours postdose, n/N (%)” value ([1]; zavegepant 10 mg) of the same compound?
The value was “(35.6) %”.

What about the “Pain relief at 2 hours postdose, n/N (%)” value ([1]; zavegepant 20 mg intranasal single dose, mITT subjects) of the same compound?
Its value is “(61.2) %”.

And the “Pain relief at 30 minutes postdose, Stratified Percentage Difference (Zavegepant-Placebo)” value [1, 4]?
Its value is 1.9%.

And the “Pain relief at 60 minutes postdose, Stratified Percentage Difference (Zavegepant-Placebo)” value [1, 4]?
The value was 7.8%.

And the “Rescue medication use within 24 hours postdose, Stratified Percentage Difference (Zavegepant-Placebo)” value [1, 4]?
The value was −7.1%.

What about the “Sustained pain freedom from 2 to 24 hours postdose, Stratified Percentage Difference (Zavegepant-Placebo)” value [1, 4] of the same compound?
The value was 6.7%.

And the “Sustained pain freedom from 2 to 48 hours postdose, Stratified Percentage Difference (Zavegepant-Placebo)” value [1, 4]?
Its value is 5.7%.

What about the “Sustained pain relief from 2 to 24 hours postdose, Stratified Percentage Difference (Zavegepant-Placebo)” value [1, 4] of the same compound?
The value was 8.9%.

And the “Sustained pain relief from 2 to 48 hours postdose, Stratified Percentage Difference (Zavegepant-Placebo)” value [1, 4]?
The value was 6.2%.

What about the “Pain relief at 2 hours postdose, Stratified Percentage Difference (Zavegepant-Placebo)” value ([1]; zavegepant 20 mg vs placebo, mITT, stratified by prophylactic migraine medication use, CMH weighting) of the same compound?
The value was 7.5%.

And the “Return to normal function at 30 minutes postdose, Stratified Percentage Difference (Zavegepant-Placebo)” value [1, 5]?
The value was 4.5%.

What about the “Return to normal function at 60 minutes postdose, Stratified Percentage Difference (Zavegepant-Placebo)” value [1, 5] of the same compound?
Its value is 1.7%.

What about the “Return to normal function at 2 hours postdose, Stratified Percentage Difference (Zavegepant-Placebo)” value [1, 5] of the same compound?
Its value is 7.3%.

What about the “Pain relapse from 2 to 48 hours postdose, Stratified Percentage Difference (Zavegepant-Placebo)” value [1, 5] of the same compound?
Its value is −12.5%.

What about the “Nausea freedom at 2 hours postdose, Stratified Percentage Difference (Zavegepant-Placebo)” value [1, 5] of the same compound?
Its value is 3.7%.

What about the “Phonophobia freedom at 2 hours postdose, Stratified Percentage Difference (Zavegepant-Placebo)” value [1, 5] of the same compound?
The value was 9.3%.

What about the “Photophobia freedom at 2 hours postdose, Stratified Percentage Difference (Zavegepant-Placebo)” value [1, 5] of the same compound?
The value was 7.4%.

And the “Pain relief at 30 minutes postdose, n/N (%)” value [1, 6]?
The value was “(26.6) %”.

And the “Pain relief at 60 minutes postdose, n/N (%)” value [1, 6]?
The value was “(49.8) %”.

What about the “Rescue medication use within 24 hours postdose, n/N (%)” value [1, 6] of the same compound?
The value was “(20.2) %”.

And the “Sustained pain freedom from 2 to 24 hours postdose, n/N (%)” value [1, 6]?
The value was “(15.7) %”.

And the “Sustained pain freedom from 2 to 48 hours postdose, n/N (%)” value [1, 6]?
The value was “(13.2) %”.

And the “Sustained pain relief from 2 to 24 hours postdose, n/N (%)” value [1, 6]?
The value was “(44.5) %”.

What about the “Sustained pain relief from 2 to 48 hours postdose, n/N (%)” value [1, 6] of the same compound?
Its value is “(38.8) %”.

What about the “Return to normal function at 30 minutes postdose, n/N (%)” value ([1]; zavegepant 20 mg) of the same compound?
The value was “(9.9) %”.

And the “Return to normal function at 60 minutes postdose, n/N (%)” value ([1]; zavegepant 20 mg)?
The value was “(18.8) %”.

And the “Return to normal function at 2 hours postdose, n/N (%)” value ([1]; zavegepant 20 mg)?
Its value is “(34.7) %”.

What about the “Pain relapse from 2 to 48 hours postdose, n/N (%)” value ([1]; zavegepant 20 mg) of the same compound?
The value was “(37.6) %”.

And the “Nausea freedom at 2 hours postdose, n/N (%)” value ([1]; zavegepant 20 mg)?
Its value is “(54.7) %”.

And the “Phonophobia freedom at 2 hours postdose, n/N (%)” value ([1]; zavegepant 20 mg)?
Its value is “(43.3) %”.

What about the “Photophobia freedom at 2 hours postdose, n/N (%)” value ([1]; zavegepant 20 mg) of the same compound?
The value was “(37.9) %”.

What about the “median Tmax, range across doses” value (clinical) of the same compound?
Its value is 32.4 to 46.2 min.

What about the “median t1/2, range across doses” value (clinical) of the same compound?
The value was 2.5 to 4.4 h.

And the AUC(0-inf) (clinical; inhaled or intranasal, 1 mg)?
Its AUC(0-inf) is 3.5 ng·h/mL.

What about the AUC(0-t) (clinical; inhaled or intranasal, 1 mg) of the same compound?
Its AUC(0-t) is 2.34 ng·h/mL.

And the Cmax (clinical; inhaled or intranasal, 1 mg)?
Its Cmax is 1.34 ng/mL.

And the Tmax (clinical; inhaled or intranasal, 1 mg, Tmax (h) Median)?
Its Tmax is 57.6 min.

And the half-life (clinical; inhaled or intranasal, 1 mg, t1/2 el (h) Median)?
The half-life was 98.4 min.

What about the AUC(0-inf) (clinical; inhaled or intranasal, 3 mg) of the same compound?
The AUC(0-inf) was 9.75 ng·h/mL.

What about the AUC(0-t) (clinical; inhaled or intranasal, 3 mg) of the same compound?
Its AUC(0-t) is 7.85 ng·h/mL.

What about the Cmax (clinical; inhaled or intranasal, 3 mg) of the same compound?
Its Cmax is 3.68 ng/mL.

What about the Tmax (clinical; inhaled or intranasal, 3 mg, Tmax (h) Median) of the same compound?
Its Tmax is 46.8 min.

And the half-life (clinical; inhaled or intranasal, 3 mg, t1/2 el (h) Median)?
The half-life was 134 min.

And the AUC(0-inf) (clinical; inhaled or intranasal, 5 mg)?
Its AUC(0-inf) is 20.9 ng·h/mL.

And the AUC(0-t) (clinical; inhaled or intranasal, 5 mg)?
Its AUC(0-t) is 18.8 ng·h/mL.

And the Cmax (clinical; inhaled or intranasal, 5 mg)?
The Cmax was 7.8 ng/mL.

What about the Tmax (clinical; inhaled or intranasal, 5 mg, Tmax (h) Median) of the same compound?
The Tmax was 36 min.

And the half-life (clinical; inhaled or intranasal, 5 mg, t1/2 el (h) Median)?
Its half-life is 142 min.

And the “Tmax (h) Median” value (clinical; inhaled or intranasal, 10 mg)?
Its value is 0.54 h.

What about the AUC(0-inf) (clinical; inhaled or intranasal, 10 mg) of the same compound?
Its AUC(0-inf) is 28.5 ng·h/mL.

What about the AUC(0-t) (clinical; inhaled or intranasal, 10 mg) of the same compound?
The AUC(0-t) was 26.2 ng·h/mL.

And the Cmax (clinical; inhaled or intranasal, 10 mg)?
The Cmax was 13.4 ng/mL.

And the Tmax (clinical; inhaled or intranasal, 10 mg, Tmax (h) Median)?
The Tmax was 32.4 min.

What about the half-life (clinical; inhaled or intranasal, 10 mg, t1/2 el (h) Median) of the same compound?
The half-life was 175 min.

And the Tmax (clinical; inhaled or intranasal, Tmax (h) Median)?
Its Tmax is 46.2 min.

And the half-life (clinical; inhaled or intranasal, t1/2 el (h) Median)?
The half-life was 143 min.

What about the Tmax (clinical; median Tmax, range across doses) of the same compound?
The Tmax was 32.4 to 57.6 min.

What about the half-life (clinical; median t1/2, range across doses) of the same compound?
The half-life was 96 to 282 min.
